{"source": "patent US11492386B2", "about": "“Parathyroid hormone-anti-RANKL antibody fusion compounds” (Eli Lilly and Company, priority 2016, dated 2022)", "system": "orchidectomized murine model", "test": "In vivo efficacy (BMD and BMC by qCT) in orchidectomized murine model", "design": "species or system mice", "conditions": "5 μg/kg daily sc, two weeks", "protocol": "Effects on bone mass density and bone mineral content, in vivo, are assessed using an orchidectomized murine model. Sixteen week old […] C57/B6 mice (Harlan, Indianapolis, Ind.) are orchidectomized (or vehicle control group, n=6) and maintained on a 12 hour light/dark cycle at 22° C. with ad lib access to food (TD 2014 with 0.72% Ca and 0.61% P, Vit. D 0.99 IU/g, Teklad, Madison, Wis.) and water. Osteopenia is established in the orchidectomized mice by allowing mice to lose bone mass for a six-week period.\nFollowing a six-week osteopenia-establishing period, mice are divided into treatment groups and a vehicle PBS control group. […]\nBone mass density (BMD) of distal femur and bone mineral content (BMC) of lumbar vertebra are assessed by quantitative computed tomography (qCT) using Aloka LaTheta LTC-100 model CT scanner. […]", "data": [{"molecule": "CC[C@H](C)[C@H](NC(=O)[C@H](CCC(=O)O)NC(=O)[C@H](CO)NC(=O)[C@@H](NC(=O)[C@@H](N)CO)C(C)C)C(=O)N[C@@H](CCC(N)=O)C(=O)N[C@@H](CC(C)C)C(=O)N[C@@H](CCSC)C(=O)N[C@@H](Cc1c[nH]cn1)C(=O)N[C@@H](CC(N)=O)C(=O)N[C@@H](CC(C)C)C(=O)NCC(=O)N[C@@H](CCCCN)C(=O)N[C@@H](Cc1c[nH]cn1)C(=O)N[C@@H](CC(C)C)C(=O)N[C@@H](CC(N)=O)C(=O)N[C@@H](CO)C(=O)N[C@@H](CCSC)C(=O)N[C@@H](CCC(=O)O)C(=O)N[C@@H](CCCNC(=N)N)C(=O)N[C@H](C(=O)N[C@@H](CCC(=O)O)C(=O)N[C@@H](Cc1c[nH]c2ccccc12)C(=O)N[C@@H](CC(C)C)C(=O)N[C@@H](CCCNC(=N)N)C(=O)N[C@@H](CCCCN)C(=O)N[C@@H](CCCCN)C(=O)N[C@@H](CC(C)C)C(=O)N[C@@H](CCC(N)=O)C(=O)N[C@@H](CC(=O)O)C(=O)N[C@H](C(=O)N[C@@H](Cc1c[nH]cn1)C(=O)N[C@@H](CC(N)=O)C(=O)N[C@@H](Cc1ccccc1)C(=O)N[C@H](C(=O)N[C@@H](C)C(=O)N[C@@H](CC(C)C)C(=O)NCC(=O)O)C(C)C)C(C)C)C(C)C", "note": "[PTH Peptide, reference compound]", "values": [{"measurement": "Distal-Femur (% BMD change)", "value": 16, "unit": "%"}, {"measurement": "Lumbar Vertebra (% BMC change)", "value": 1, "unit": "%"}]}]}
